Data as given in patent US20240150293A1, “SPIROCYCLOHEXANE DERIVATIVES, PHARMACEUTICAL COMPOSITIONS CONTAINING THEM AND THEIR USES AS ANTI-APOPTOTIC INHIBITORS” (LES LABORATOIRES SERVIER, priority 2021, published 2024).
pIC50, pKi: −log10 of the molar value. Where two headings read alike, the source gives them in different places.

Assays:
NCI-H929 cell lines = test: In vitro cytotoxicity, CellTiter-Glo (CTG) assay (Example B, Method B); type: cell-based; conditions: NCI-H929 cells, 48 h incubation, read-out: C50
Method in brief: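 ATP-based luminescence (CellTiter-Glo) after 48 h incubation at 37° C., 5% CO2 gave NCI-H929 viability. Eleven concentrations tested, highest final 30 μM, dispensed acoustically from 10 mM DMSO stocks; C50 defined as concentration reaching 50% viability.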

[1] = target: Cy5-labelled Mcl1 (amino acids 171-321) C286S protein (UniProtKB Q07820) (Homo sapiens (Human), UniProt Q07820, C286S); test: Inhibition of Mcl-1 by the fluorescence quenching assay (Example A, Method B); type: binding
Chain of Cy5-labelled Mcl1 (amino acids 171-321) C286S protein (Q07820 171-321 C286S): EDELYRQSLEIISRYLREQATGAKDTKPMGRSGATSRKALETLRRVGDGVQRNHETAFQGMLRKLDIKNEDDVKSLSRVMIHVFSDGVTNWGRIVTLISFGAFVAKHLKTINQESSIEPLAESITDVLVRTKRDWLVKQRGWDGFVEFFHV
Method in brief: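 Eleven-point compound series incubated 2 h at room temperature with 1 nM Cy5-tagged protein and quencher-labelled PUMA peptide at 10, 20 or 400 nM in HEPES/NaCl/Tween 20, pH 7.4, 5% DMSO. IC50 for 50% fluorescence increase by 4-parameter fit, then Ki derived (complete cKi or estimated eKi).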

## CCCC1COc2cc3c(cc2OC1)[C@]1(CC[C@@](Nc2cccc(Cl)c2)(C(=O)O)CC1)[C@@H](C[C@@H](C)COc1ccnc2c1[C@H](C)CCC2)C3 (single isomer, unassigned) [Example 991]
NCI-H929 cell lines
  pIC50: 6.79
[1]
  pKi: 10.12

## C[C@@H](COc1ccnc2c1[C@H](C)CCC2)C[C@H]1Cc2cc3c(cc2[C@]12CC[C@@](Nc1cccc(Cl)c1)(C(=O)OCOP(=O)(OC(C)(C)C)OC(C)(C)C)CC2)OCO3 [Example 951, [(di-tert-butoxyphosphoryl)oxy]methyl (1r,4S,6′S)-4-(3-chloroanilino)-6′-[(2R)-2-methyl-3-{[(5R)-5-methyl-5,6,7,8-tetrahydroquinolin-4-yl]oxy}propyl]-6′,7′-dihydro-2′H-spiro[cyclohexane-1,5′-indeno[5,6-d][1,3]dioxole]-4-carboxylate]
NCI-H929 cell lines; Homo sapiens, NCI-H929, 48 h
  pIC50: 5.75
[1]
  pKi: 7.43

## C[C@@H](COc1ccnc2c1[C@H](C)CCC2)CC1=Cc2c(Cl)c(Cl)ccc2[C@]12CC[C@@](Nc1cccc(Cl)c1)(C(=O)O)CC2 [Example 750, (1r,4R)-4′,5′-dichloro-4-(3-chloroanilino)-2′-[(2R)-2-methyl-3-{[(5R)-5-methyl-5,6,7,8-tetrahydroquinolin-4-yl]oxy}propyl]spiro[cyclohexane-1,1′-indene]-4-carboxylic acid]
NCI-H929 cell lines; Homo sapiens, NCI-H929, 48 h
  pIC50: 6.42
[1]
  pKi: 8.97

## C[C@@H](COc1ccnc2c1[C@H](C)CCC2)C[C@H]1Cc2cc(Cl)c(OC3CCCC3)cc2[C@]12CC[C@@](Nc1cccc(Cl)c1)(C(=O)O)CC2 [Example 821, (1r,2′S,4S)-5′-chloro-4-(3-chloroanilino)-6′-(cyclopentyloxy)-2′-[(2R)-2-methyl-3-{[(5R)-5-methyl-5,6,7,8-tetrahydroquinolin-4-yl]oxy}propyl]-2′,3′-dihydrospiro[cyclohexane-1,1′-indene]-4-carboxylic acid]
NCI-H929 cell lines; Homo sapiens, NCI-H929, 48 h
  pIC50: 6.27
[1]
  pKi: 9.39

## C[C@@H](COc1ccnc2c1[C@H](C)CCC2)C[C@H]1Cc2cc3c(cc2[C@]12CC[C@@](Nc1cccc(Cl)c1)(C(=O)OCOP(=O)(O)O)CC2)OCO3 [Example 952, (phosphonooxy)methyl (1r,4S,6′S)-4-(3-chloroanilino)-6′-[(2R)-2-methyl-3-{[(5R)-5-methyl-5,6,7,8-tetrahydroquinolin-4-yl]oxy}propyl]-6′,7′-dihydro-2′H-spiro[cyclohexane-1,5′-indeno[5,6-d][1,3]dioxole]-4-carboxylate]
NCI-H929 cell lines; Homo sapiens, NCI-H929, 48 h
  pIC50: 7.02
[1]
  pKi: 9.43

## CC(O)c1ccc2c(c1)[C@]1(CC[C@@](Nc3cccc(Cl)c3)(C(=O)O)CC1)[C@@H](C[C@@H](C)COc1ccnc3c1[C@H](C)CCC3)C2 (single isomer, unassigned) [Example 860]
NCI-H929 cell lines
  pIC50: 7.03
[1]
  pKi: 10.73

## C[C@@H](COc1ccnc2c1[C@H](C)CCC2)C[C@H]1Cc2ccc(CO)cc2[C@]12CC[C@@](Nc1cccc(Cl)c1)(C(=O)O)CC2 [Example 870, (1r,2′S,4S)-4-(3-chloroanilino)-6′-(hydroxymethyl)-2′-[(2R)-2-methyl-3-{[(5R)-5-methyl-5,6,7,8-tetrahydroquinolin-4-yl]oxy}propyl]-2′,3′-dihydrospiro[cyclohexane-1,1′-indene]-4-carboxylic acid]
NCI-H929 cell lines; Homo sapiens, NCI-H929, 48 h
  pIC50: 6.90
[1]
  pKi: 10.29

## C[C@@H](COc1ccnc2c1[C@H](C)CCC2)C[C@H]1Cc2ccc(OC3CCCC3)cc2[C@]12CC[C@@](Nc1cccc(Cl)c1)(C(=O)O)CC2 [Example 789, (1r,2′S,4S)-4-(3-chloroanilino)-6′-(cyclopentyloxy)-2′-[(2R)-2-methyl-3-{[(5R)-5-methyl-5,6,7,8-tetrahydroquinolin-4-yl]oxy}propyl]-2′,3′-dihydrospiro[cyclohexane-1,1′-indene]-4-carboxylic acid]
NCI-H929 cell lines; Homo sapiens, NCI-H929, 48 h
  pIC50: 6.57
[1]
  pKi: 9.87

## CC(O)c1ccc2c(c1)[C@]1(CC[C@@](Nc3cccc(Cl)c3)(C(=O)O)CC1)[C@@H](C[C@@H](C)COc1ccnc3c1[C@H](C)CCC3)C2 (single isomer, unassigned) [Example 859]
NCI-H929 cell lines
  pIC50: 7.36
[1]
  pKi: 10.43

## C[C@@H](COc1ccnc2c1[C@H](C)CCC2)C[C@H]1Cc2c(Cl)c3c(cc2[C@]12CC[C@@](Nc1cccc(Cl)c1)(C(=O)O)CC2)OCO3 [Example 888, (1r,4S,6′S)-8′-chloro-4-(3-chloroanilino)-6′-[(2R)-2-methyl-3-{[(5R)-5-methyl-5,6,7,8-tetrahydroquinolin-4-yl]oxy}propyl]-6′,7′-dihydro-2′H-spiro[cyclohexane-1,5′-indeno[5,6-d][1,3]dioxole]-4-carboxylic acid]
NCI-H929 cell lines; Homo sapiens, NCI-H929, 48 h
  pIC50: 7.03
[1]
  pKi: 9.60

## C[C@@H](COc1ccnc2c1[C@H](C)CCC2)C[C@H]1Cc2cc3c(cc2[C@]12CC[C@@](Nc1cccc(Cl)c1)(C(=O)OCC(F)(F)F)CC2)OCO3 [Example 932, 2,2,2-trifluoroethyl (1r,4S,6′S)-4-(3-chloroanilino)-6′-[(2R)-2-methyl-3-{[(5R)-5-methyl-5,6,7,8-tetrahydroquinolin-4-yl]oxy}propyl]-6′,7′-dihydro-2′H-spiro[cyclohexane-1,5′-indeno[5,6-d][1,3]dioxole]-4-carboxylate]
NCI-H929 cell lines; Homo sapiens, NCI-H929, 48 h
  pIC50: 4.87
[1]
  pKi: 6.67

## C[C@@H](COc1ccnc2c1[C@H](C)CCC2)C[C@H]1Cc2cc(Cl)ccc2[C@]12CC[C@@](Nc1cccc(Cl)c1)(C(=O)O)CC2 [Example 778, (1r,2′S,4S)-5′-chloro-4-(3-chloroanilino)-2′-[(2R)-2-methyl-3-{[(5R)-5-methyl-5,6,7,8-tetrahydroquinolin-4-yl]oxy}propyl]-2′,3′-dihydrospiro[cyclohexane-1,1′-indene]-4-carboxylic acid]
NCI-H929 cell lines; Homo sapiens, NCI-H929, 48 h
  pIC50: 7.17
[1]
  pKi: 9.75

## CCOc1cc2c(cc1F)C[C@H](C[C@@H](C)COc1ccnc3c1[C@H](C)CCC3)[C@]21CC[C@](Nc2cccc(Cl)c2)(C(=O)O)CC1 [Example 818, (1r,2′S,4S)-4-(3-chloroanilino)-6′-ethoxy-5′-fluoro-2′-[(2R)-2-methyl-3-{[(5R)-5-methyl-5,6,7,8-tetrahydroquinolin-4-yl]oxy}propyl]-2′,3′-dihydrospiro[cyclohexane-1,1′-indene]-4-carboxylic acid]
NCI-H929 cell lines; Homo sapiens, NCI-H929, 48 h
  pIC50: 6.97
[1]
  pKi: 10.11

## CCC1COc2cc3c(cc2OC1)[C@]1(CC[C@@](Nc2cccc(Cl)c2)(C(=O)O)CC1)[C@@H](C[C@@H](C)COc1ccnc2c1[C@H](C)CCC2)C3 (single isomer, unassigned) [Example 989]
NCI-H929 cell lines
  pIC50: 7.05
[1]
  pKi: 10.54

## CC1CCNc2nccc(OC[C@H](C)C[C@H]3Cc4ccccc4[C@]34CC[C@@](Nc3cccc(Cl)c3)(C(=O)O)CC4)c21 (single isomer, unassigned) [Example 642]
NCI-H929 cell lines
  pIC50: 6.34
[1]
  pKi: 9.14

## CCOc1cc2c(cc1Br)C[C@H](C[C@@H](C)COc1ccnc3c1[C@H](C)CCC3)[C@]21CC[C@](Nc2cccc(Cl)c2)(C(=O)O)CC1 [Example 817, (1r,2′S,4S)-5′-bromo-4-(3-chloroanilino)-6′-ethoxy-2′-[(2R)-2-methyl-3-{[(5R)-5-methyl-5,6,7,8-tetrahydroquinolin-4-yl]oxy}propyl]-2′,3′-dihydrospiro[cyclohexane-1,1′-indene]-4-carboxylic acid]
NCI-H929 cell lines; Homo sapiens, NCI-H929, 48 h
  pIC50: 6.78
[1]
  pKi: 9.64

## CC1COc2cc3c(cc2OC1)[C@]1(CC[C@@](Nc2cccc(Cl)c2)(C(=O)O)CC1)[C@@H](C[C@@H](C)COc1ccnc2c1[C@H](C)CCC2)C3 (single isomer, unassigned) [Example 983]
NCI-H929 cell lines
  pIC50: 7.13
[1]
  pKi: 10.43
